Test results reported in patent publication US12539324B2, “Antimicrobial peptide stimulating sanitizing composition” (GOJO Industries, Inc., priority 2016, dated 2026).

How the values were obtained:
Format in all cases: cell-based, human
HBD-1 = HBD-1 ELISA, dose response in NHEK culture medium; conditions: vs control culture medium
Protocol: (§1) To determine the optimal dose of active ingredient, test dose response studies were run using both Decorinyl® and Pamitoyl Pentapeptided-3. These test dose response studies were commissioned to determine the concentration of HBD-1 at various levels of the active ingredients. Neonatal Human Epidermal Keratinocytes (NHEK; Life Technology, Grand Island, NY, USA) were cultured with keratinocyte growth medium (KGM, Medium 154: M-154-500 Life Technology with supplements S-001, Life Technologies). NHEK were seeded into 96-well plates at a density of 10000 cells in 200 μl medium per well. After 48 hours, the cells were incubated with varying concentrations of each ingredient solution in a culture medium (KGM) overnight (16 hours) at 37° C., 5% CO2 and 95% humidity at four replicates for each concentration. Each of these active ingredients was tested at the following weight percents based on the weight of the total culture: 0.02 wt. %, 0.05 wt. %, 0.1 wt. %, 0.2 wt. %, 0.5 wt. %, 1.0 wt. %, 2.0 wt. %. Each of these compositions was compared to a control culture medium.
HBD-1 was detected using HBD-1 ELISA (enzyme-linked immunosorbent assay) developing kits (commercially available from Peprotech). […] The results were measured using a colorimeter, absorbance was measured at 450 nanometers (nm) within 30 minutes. […] The concentration of each sample was calculated using ELISA standard curve.

HBD-2 = HBD-2 ELISA, dose response in NHEK culture medium; conditions: 2.0 wt. %, vs control culture medium
Protocol: as §1, with “of HBD-2” for “of HBD-1”, “ingredients were” for “ingredients was”
HBD-2 was detected using HBD-2 ELISA developing kits (commercially available from Peprotech). […] The results were measured using a colorimeter, absorbance was measured at 450 nanometers (nm) within 30 minutes. […] The concentration of each sample was calculated using ELISA standard curve.

HBD-3 = HBD-3 ELISA, dose response in NHEK culture medium; conditions: vs control culture medium
Protocol: as §1, with “HBD-3” for “HBD-1”, “5-001,” for “S-001,”
HBD-3 was detected using HBD-3 ELISA developing kits (commercially available from Peprotech). […] The results were measured using a colorimeter, absorbance was measured at 450 nanometers (nm) within 30 minutes. […] The concentration of each sample was calculated using ELISA standard curve.

Substance: palmitoyl pentapeptide-3 [Pamitoyl Pentapeptided-3]
- increase in HBD-1 concentration (HBD-1; 1.0 wt. %): 311%
- increase in HBD-1 concentration (HBD-1; 2.0 wt. %): 1561%
- increase in HBD-2 concentration (HBD-2): 2800%
- increase in HBD-3 concentration (HBD-3; 1.0 wt. %): 1005%
- increase in HBD-3 concentration (HBD-3; 2.0 wt. %): 1890%
